Test results from patent US9309263B2, “Fused multi-cyclic sulfone compounds as inhibitors of beta-secretase and methods of use thereof” (AMGEN INC., priority 2013, dated 2016).
Like-named read-outs stand apart in the source and are kept apart here.

Columns and labels:
[1] = biological target: Cathepsin D (Cat D) (Homo sapiens, UniProt P07339); assay: In vitro enzymatic Cathepsin D (Cat D) FRET assay; type: biochemical
Description: In Vitro Enzymatic Cathepsin D (Cat D) FRET (Fluorescence Resonance Energy Transfer) Assay
Recombinant Cat D was expressed in CHO cells. The assay buffer for CathepsinD is 0.05 M citrate pH 3.5, 10% DMSO final, 5 mM CHAPS. The Cat D enzyme (9 nM) is pre-incubated for one hour with inhibitors, typically in about 1 uL of DMSO according to a serial dilution, is added thereto. The assays are effectively started by the addition of different FRET substrates (20 nM for Cat D) and the combination is incubated for one hour. The FRET assay is terminated with by addition of Tris buffer, which raises the pH to neutrality, and the fluorescence is determined. The FRET substrate is a peptide with commercially available fluorophore and quencher, on opposite sides of the BACE cleavage site. The Cat D substrate peptide sequence is based on sequence #1 of Table 1 from Gulnik et al. FEBS Letters v413 p 379-384 1997. Proteolytic cleavage of the FRET substrate releases quenching of fluorescence (Cat D excitation 500 nm and emission 580 nm). […]
See, for instance, examples 8, 12, 15, 16, 18, 21-23, 24, 25, 26, 29, 30, 32, 41-42, 45, 53, 54, 57, 63, 67-69, 72-74, 76, 79-81, 83 & 84 (to point to just a few; referring to data in Table 2). […] See, for instance, examples 8, 12, 15, 18, 21-23, 25, 29, 30, 32, 41-42, 45, 54, 57, 67-68, 72-73, 76, 80-81, 84, 86, 91-92 & 100 (to point out those from compound examples 1-100; and with reference to data in Table 2).

[2] = test system: Aβ 40 in conditioned medium of cells stably expressing Amyloid Precursor Protein (APP); assay: In vitro BACE cell-based assay (Aβ 40 sandwich ELISA); conditions: Homo sapiens, HEK293
Description: In Vitro BACE Cell-Based Assay
The cell-based assay measures inhibition or reduction of […] in conditioned medium of test compound treated cells expressing amyloid precursor protein.
Cells stably expressing Amyloid Precursor Protein (APP) were plated at a density of 40K cells/well in 96 well plates (Costar). The cells were cultivated for 24 hours at 37° C. and 5% CO2 in DMEM supplemented with 10% FBS. The test compounds were then added to cells in 10-point dose response concentrations with the starting concentration being either 100 μM or 10 μM. The compounds were diluted from stock solutions in DMSO and the final DMSO concentration of the test compounds on cells was 0.1%. After 24 h of incubation with the test compounds the supernatant conditioned media was collected and the Aβ 40 levels were determined using a sandwich ELISA. The IC50 of the compound was calculated from the percent of control or percent inhibition of Aβ 40 as a function of the concentration of the test compound.
The sandwich ELISA to detect Aβ 40 was performed in 96 well microtiter plates, which were pre-treated with goat anti-rabbit IgG (Pierce). The capture and detecting antibody pair that were used to detect Aβ 40 from cell supernatants were affinity purified pAb40 (Biosource) and biotinylated 6E10 (Signet Labs Inc.), respectively. The optimal concentration for the pAb40 antibody was 3 μg/ml in Superblock/TBS (Pierce) that was supplemented with 0.05% Tween 20 (Sigma). Optimal concentration for the detection antibody 6E10-biotinylated was 0.5 μg/ml in Superblock/TBS (Pierce) that had been supplemented with 2% normal goat serum and 2% normal mouse serum.
Cellular supernatants were incubated with the capture antibody for 3 h at 4° C., followed by 3 wash steps in TBS-tween (0.05%). The detecting antibody incubation was for 2 h at 4° C., again followed by the wash steps as described previously. The final readout of the ELISA is Time-Resolved Fluorescence (counts per minute) using Delfia reagents Streptavidin-Europium and Enhancement solutions (Perkin Elmer) and the Victor 2 multilabel counter (Perkin Elmer).

[3] = biological target: Beta Secretase enzyme (BACE) (Homo sapiens, UniProt P56817); assay: In vitro enzymatic BACE FRET assay; type: biochemical; conditions: read-out: BACE1 FRET assay IC50
Description: In Vitro Enzymatic BACE FRET (Fluorescence Resonance Energy Transfer) Assay (Enzyme Assay Data in the Example Table I)
The assay buffer used in this screen is 0.05 M acetate, pH 4.2, 10% DMSO final, 100 uM genapol (which is a nonionic detergent, below its Critical Micelle Concentration). The Beta Secretase enzyme (0.2 nM) is pre-incubated for one hour with inhibitors, typically in about 1 uL of DMSO according to a serial dilution, are added thereto. This assay is effectively started by the addition of FRET substrate (50 nM) and the combination is incubated for one hour. The FRET assay is terminated with by addition of Tris buffer, which raises the pH to neutrality, and the fluorescence is determined. The FRET substrate is a peptide with commercially available fluorophore and quencher, on opposite sides of the BACE cleavage site. Proteolytic cleavage of the FRET substrate releases quenching of fluorescence (excitation 488 nm and […]).

[4] = Cathepsin D FRET assay, read-out: CatD IC50
[5] = average IC50, HEK cell assay, Aβ 40 readout
[6] = average IC50, in vitro enzymatic BACE FRET assay

Sequence of Cathepsin D (Cat D) (P07339 65-412, species assumed): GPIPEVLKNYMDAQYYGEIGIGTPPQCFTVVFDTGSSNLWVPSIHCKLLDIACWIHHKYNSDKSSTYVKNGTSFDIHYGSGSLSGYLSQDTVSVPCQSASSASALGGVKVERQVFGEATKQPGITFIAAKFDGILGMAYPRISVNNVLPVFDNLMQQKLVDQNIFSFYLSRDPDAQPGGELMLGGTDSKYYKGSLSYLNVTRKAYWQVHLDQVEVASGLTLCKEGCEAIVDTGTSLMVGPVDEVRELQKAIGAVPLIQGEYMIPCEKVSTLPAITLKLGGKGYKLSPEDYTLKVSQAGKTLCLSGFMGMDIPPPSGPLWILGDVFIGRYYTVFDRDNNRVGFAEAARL
Sequence of Beta Secretase enzyme (BACE) (P56817 46-501): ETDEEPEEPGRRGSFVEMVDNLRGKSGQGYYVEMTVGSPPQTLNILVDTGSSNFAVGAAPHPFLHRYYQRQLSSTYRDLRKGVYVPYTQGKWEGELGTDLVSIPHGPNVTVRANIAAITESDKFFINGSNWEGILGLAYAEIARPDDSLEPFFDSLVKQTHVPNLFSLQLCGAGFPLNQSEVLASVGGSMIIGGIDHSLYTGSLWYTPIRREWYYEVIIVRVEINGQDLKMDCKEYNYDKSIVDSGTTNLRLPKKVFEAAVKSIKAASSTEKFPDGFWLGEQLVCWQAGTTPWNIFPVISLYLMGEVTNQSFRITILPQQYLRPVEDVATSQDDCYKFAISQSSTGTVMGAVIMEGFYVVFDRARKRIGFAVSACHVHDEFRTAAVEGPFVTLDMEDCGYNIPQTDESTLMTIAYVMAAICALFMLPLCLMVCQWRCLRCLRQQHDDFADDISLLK

IC50 [1, 4] [µM]	IC50 [2, 5] [µM]	IC50 [3, 6] [µM]	IC50 ([1]; read-out: CatD IC50) [µM]	IC50 ([2]; HEK cell, average IC50) [µM]	IC50 ([3]; average IC50) [µM]	IC50 ([1]; text summary referring to data in Table 2) [µM]	IC50 ([2]; HEK cells, average IC50) [µM]	Compound
513	0.054	0.011	–	–	–	–	–	Cc1cc(C(F)(F)F)cnc1C(=O)Nc1ccc2c(c1)[C@@]1(C)N=C(N)C(C)(C)S(=O)(=O)[C@]1(F)CCO2 [Example 93, N-((4aR,11bR)-2-amino-4a-fluoro-3,3,11b-trimethyl-4,4-dioxido-4a,5,6,11b-tetrahydro-3H-[1]benzoxepino[4,5-b][1,4]thiazin-10-yl)-3-methyl-5-(trifluoromethyl)-2-pyridinecarboxamide]
–	–	–	757	0.02	0.021	–	–	Cc1cc(Cl)cnc1C(=O)Nc1ccc2c(c1)[C@@]1(C)N=C(N)C(C)(C)S(=O)(=O)[C@H]1CCC2 [Example 9, N-((4a8,11bR)-2-amino-3,3,11b-trimethyl-4,4-dioxido-3,4a,5,6,7,11b-hexahydrobenzo[3,4]cyclohepta[1,2-b][1,4]thiazin-10-yl)-5-chloro-3-methyl-2-pyridinecarboxamide]
1340	0.012	0.025	–	–	–	> 1200	–	COc1cnc(C(=O)Nc2ccc3c(c2)[C@@]2(C)N=C(N)C(C)(C)S(=O)(=O)[C@@H]2CC(C)(C)O3)cn1 [Example 100, N-((4aR,11bR)-2-amino-3,3,6,6,11b-pentamethyl-4,4-dioxido-4a,5,6,11b-tetrahydro-3H-[1]benzoxepino[4,5-b][1,4]thiazin-10-yl)-5-methoxy-2-pyrazinecarboxamide]
–	–	–	174	0.022	0.014	–	–	COc1cnc2c(Nc3ccc4c(c3)[C@@]3(C)N=C(N)C(C)(C)S(=O)(=O)[C@@H]3C[C@H](C)O4)ncc(F)c2c1 [Example 52, (4aR,6S,11bR)-N^~10^~-(5-fluoro-3-methoxy-1,7-naphthyridin-8-yl)-3,3,6,11b-tetramethyl-4a,5,6,11b-tetrahydro-3H-[1]benzoxepino[4,5-b][1,4]thiazine-2,10-diamine 4,4-dioxide]
–	–	–	> 400	0.135	0.037	–	–	COc1cnc2c(Nc3cnc4c(c3)[C@@]3(C)N=C(N)C5(CCC5)S(=O)(=O)[C@@H]3CCO4)nccc2n1 [Example 60]
> 44.4	0.003	0.003	–	–	–	–	–	Cc1cnc(COc2cnc3c(Nc4ccc5c(c4)[C@@]4(C)N=C(N)C(C)(C)S(=O)(=O)[C@@H]4C[C@H](C)O5)nccc3n2)o1 [Example 134, (4aR,6S,11bR)-3,3,6,11b-tetramethyl-N^~10^~-(2-((5-methyl-1,3-oxazol-2-yl)methoxy)pyrido[3,4-b]pyrazin-5-yl)-4a,5,6,11b-tetrahydro-3H-[1]benzoxepino[4,5-b][1,4]thiazine-2,10-diamine 4,4-dioxide]
168	0.003	0.014	–	–	–	–	–	COc1cnc(C(=O)Nc2ccc3c(c2)[C@@]2(C)N=C(N)C(C)(C)S(=O)(=O)[C@@H]2CCS3)cn1 [Example 117, N-((4aR,11bR)-2-amino-3,3,11b-trimethyl-4,4-dioxido-4a,5,6,11b-tetrahydro-3H-[1]benzothiepino[4,5-b][1,4]thiazin-10-yl)-5-methoxy-2-pyrazinecarboxamide]
–	–	–	191	–	0.003	–	0.001	Cc1cc(Cl)cnc1C(=O)Nc1ccc2c(c1)[C@@]1(C)N=C(N)C(C)(C)S(=O)(=O)[C@@H]1C[C@H](C)O2 [Example 189, N-((4aR,6S,11bR)-2-amino-3,3,6,11b-tetramethyl-4,4-dioxido-4a,5,6,11b-tetrahydro-3H-[1]benzoxepino[4,5-b][1,4]thiazin-10-yl)-5-chloro-3-methyl-2-pyridinecarboxamide]
–	–	–	1550	–	0.008	–	0.003	Cc1cc(C(F)(F)F)cnc1C(=O)Nc1ccc2c(c1)[C@@]1(C)N=C(N)C(C)(C)S(=O)(=O)[C@@H]1CCO2 [Example 188, N-((4aR,11bR)-2-amino-3,3,11b-trimethyl-4,4-dioxido-4a,5,6,11b-tetrahydro-3H-[1]benzoxepino[4,5-b][1,4]thiazin-10-yl)-3-methyl-5-(trifluoromethyl)-2-pyridinecarboxamide]
